Columns and labels:
Type in all cases: cell-based
G6PD = G6PD knockdown by G6PD-specific siRNA sequence (preliminary results); details: based on preliminary results
Procedure: PASM cells cultured in a 12-well plate were transfected for 72 h with 100 nmol/1 shRNA targeting G6PD using lipid-based and nano-particle based transfection system. Control experiments were performed using a nontargeting/scrambled (NT) shRNA (negative control).

G6PD protein = experiment: Western blot of G6PD protein in hypoxic rat pulmonary artery smooth muscle cells; details: rat PASMC; 50 ng and 100 ng; hypoxia (1% O2) 72 hr; compared to untransfected (UT), non-targeting (NT) and G6PD-siRNA#1; FIG. 4A
Procedure: (§1) FIGS. 4A-4B are blots showing rat pulmonary artery smooth muscle cells that were cultured in 15% DMEM for 48 hr and transfected with G6PD-siRNA#1 and G6PD-siRNA#2, respectively (0.5 and 1.0 μl=50 ng and 100 ng, respectively). The cells were then subjected to hypoxia (1% 02) for 72 hr. Expression of G6PD protein was estimated using western blot analyses. UT=Untransfected; NT=non-targeting/scrambled sequence (FIG. 4A). Beta-Actin (ACTB) was used as loading control. FIG. 4B are blots showing the effect of G6PD-siRNA#2 treatment, on the expression of G6PD (FIG. 4B-panel 2), polymerase delta (FIG. 4B-panel 3), cyclin E1 (FIG. 4B-panel 4), and cyclin B (FIG. 4B-panel 5), under normoxic and hypoxic conditions, in these cells were determined using Western blot analyses. GAPDH was used as a loading control.
(§2) In FIGS. 4A-B, rat pulmonary artery smooth muscle cells were cultured in 15% DMEM for 48 hr. Cells were then transfected with G6PD-siRNA#1 and G6PD-siRNA#2, respectively (0.5 and 1.0 μl=50 ng and 100 ng, respectively) and subjected to hypoxia (1% 02) for 72 hr. […] GAPDH was used as a loading control.

[1] = test system: polymerase delta, cyclin E1, cyclin B1; experiment: Western blot of replication and cell cycle proteins in rat pulmonary artery smooth muscle cells; details: rat PASMC, normoxic and hypoxic conditions
Procedure: as §1, §2

Substance	downregulation of G6PD (G6PD)	G6PD protein expression (G6PD protein)	expression of polymerase delta ([1]; FIG. 4B-panel 3)	expression of cyclin E1 ([1]; FIG. 4B-panel 4)	expression of cyclin B1 ([1]; FIG. 4B-panel 5)
SEQ ID NO: 2: G6PD-specific siRNA gene sequence CAACAUCGCCUGCGUUAUC; nucleotide positions 922-940 of SEQ ID NO. 1 (expressed or natural sequence)	specifically and efficaciously downregulated G6PD				
G6PD-siRNA#2: Sense (SEQ ID NO. 6) 5′ CGACGAAGCGCAGACAGCGUC 3′; Antisense (SEQ ID NO. 7) 5′GACGCUGUCUGCGCUUCGUCG3′ (listed as RNA, chemistry not given here)		significantly down-regulated	significantly down-regulated	significantly down-regulated	significantly down-regulated
